Results reported in US20080009418A1, “Selective Inhibitors” (Alchemia LTD., priority 2004, published 2008).

Experiments:
[1] = target: T1, Human neuropeptide Y (NPY-Y1) (Homo sapiens, UniProt P25929); experiment: Radioligand binding, human neuropeptide Y NPY-Y1 membranes, FlashPlate, [125I]-PYY; settings: compound at 10 μM; [125I]-PYY, human NPY-Y1 membranes
T1 construct: purchased Perkin Elmer Biosignal
T1 sequence (P25929 1-384): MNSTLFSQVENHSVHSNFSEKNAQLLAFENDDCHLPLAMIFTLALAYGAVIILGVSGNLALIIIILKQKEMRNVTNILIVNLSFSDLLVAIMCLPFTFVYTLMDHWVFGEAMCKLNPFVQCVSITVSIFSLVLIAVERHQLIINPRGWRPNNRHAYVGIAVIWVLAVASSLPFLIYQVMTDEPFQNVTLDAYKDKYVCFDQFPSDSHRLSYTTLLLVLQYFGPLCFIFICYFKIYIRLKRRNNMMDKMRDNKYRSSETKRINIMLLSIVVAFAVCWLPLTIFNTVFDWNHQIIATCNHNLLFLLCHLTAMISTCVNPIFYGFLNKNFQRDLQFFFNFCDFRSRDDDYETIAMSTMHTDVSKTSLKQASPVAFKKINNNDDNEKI
Method in brief: (§1)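 Cloned human receptor membranes were coated onto FlashPlate wells and incubated with radioligand and compound (added from a 0.5 mM DMSO daughter plate) for 1 hour at room temperature in the dark. Scintillation counting gave percent inhibition, with DMSO defining total and reference ligand defining non-specific binding.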

Human melanocortin (MC5) = target: T2, Human melanocortin (MC5) (Homo sapiens, UniProt P33032); experiment: Radioligand binding, human melanocortin MC5 membranes, FlashPlate, [125I]-NDP-αMSH; settings: compound at 10 μM; [125I]-NDP-αMSH, human MC5 membranes
T2 construct: purchased Perkin Elmer Biosignal
Method in brief: as §1

Human Melanocortin (MC4) = target: T3, Human Melanocortin (MC4) (Homo sapiens, UniProt P32245); experiment: Radioligand binding, human melanocortin MC4 membranes, FlashPlate, [125I]-NDP-αMSH; settings: compound at 10 μM; [125I]-NDP-αMSH, human MC4 membranes
T3 construct: purchased Perkin Elmer Biosignal
Method in brief: as §1

[2] = target: T4, Human melanin-concentrating hormone (MCH1) (Homo sapiens, UniProt Q99705); experiment: Radioligand binding, human melanin-concentrating hormone MCH1 membranes, FlashPlate, [125I]-S36057; settings: compound at 10 μM, [125I]-S36057, human MCH1 membranes
T4 construct: purchased Perkin Elmer Biosignal
Method in brief: as §1

Human κ-Opioid (KOP) = target: T5, Human κ-Opioid (KOP) (Homo sapiens, UniProt P41145); experiment: Radioligand binding, human κ-opioid (KOP) membranes, filtration, [3H]-Diprenorphine; settings: compound at 10 μM; [3H]-Diprenorphine, human KOP membranes
T5 construct: purchased Perkin Elmer Biosignal
Method in brief: (§2)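 Filtration binding on cloned human receptor membranes (1 Unit/well), [125I]-Substance P for NK1 and [3H]-Diprenorphine for KOP, 1 h at room temperature. Filters PEI-presoaked, washed with cold 50 mM Tris-HCl pH 7.4, counted by scintillation; percent inhibition calculated, reference ligand defining non-specific binding.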

Human neurokinin (NK1) = target: T6, Human neurokinin (NK1) (Homo sapiens, UniProt P25103); experiment: Radioligand binding, human neurokinin NK1 membranes, filtration, [125I]-Substance P; settings: compound at 10 μM; [125I]-Substance P, human NK1 membranes
T6 construct: purchased Perkin Elmer Biosignal
Method in brief: as §2

Human δ-opioid (DOP) = target: T7, Human δ-opioid (DOP) (Homo sapiens, UniProt P41143); experiment: Radioligand binding, human δ-opioid (DOP) membranes, FlashPlate, [3H]-Bremazocine; settings: compound at 10 μM; [3H]-Bremazocine, human DOP membranes
T7 construct: purchased Perkin Elmer Biosignal
Method in brief: as §1

Mouse urotensin (mUR2) = target: T8, Mouse urotensin (mUR2) (Mus musculus, UniProt Q8VIH9); experiment: Radioligand binding, mouse urotensin mUR2 membranes, FlashPlate, [125I]-Urotensin II; settings: compound at 10 μM; [125I]-Urotensin II, mouse mUR2 membranes
T8 construct: purchased Perkin Elmer Biosignal
T8 sequence (Q8VIH9 1-385): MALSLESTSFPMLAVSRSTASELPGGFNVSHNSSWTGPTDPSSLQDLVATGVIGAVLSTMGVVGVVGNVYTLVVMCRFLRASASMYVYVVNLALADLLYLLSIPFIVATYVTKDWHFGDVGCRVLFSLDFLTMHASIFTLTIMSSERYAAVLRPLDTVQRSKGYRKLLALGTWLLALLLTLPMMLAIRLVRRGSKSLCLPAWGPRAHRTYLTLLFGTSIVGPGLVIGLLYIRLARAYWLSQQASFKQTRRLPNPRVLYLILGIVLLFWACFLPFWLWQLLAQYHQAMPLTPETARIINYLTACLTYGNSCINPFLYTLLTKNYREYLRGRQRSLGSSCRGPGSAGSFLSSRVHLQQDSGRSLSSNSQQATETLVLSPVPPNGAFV
Method in brief: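 Cloned mouse urotensin (mUR2) receptor membranes from Perkin Elmer Biosignal were immobilized in FlashPlate microplates using a proprietary coating. Each well got 19.5 μl buffer, then 0.5 μl of DMSO, reference ligand, or compound. Adding 5 μl of [125I]-Urotensin II, diluted to 5× final concentration in binding buffer, started binding. Plates were sealed with TopSeal-A and incubated 1 hour at room temperature in the dark. Wells were counted for 30 seconds each on a TopCount after a 60-second delay, and percentage inhibition was calculated.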

Human opioid (ORL1) = target: T9, Human opioid (ORL1) (Homo sapiens, UniProt P41146); experiment: Radioligand binding, human opioid ORL1 membranes, FlashPlate, [125I]-Nociceptin; settings: compound at 10 μM, [125I]-Nociceptin, human ORL1 membranes
T9 construct: purchased Perkin Elmer Biosignal
Method in brief: as §1

Human Melanocortin (MC3) = target: T10, Human Melanocortin (MC3) (Homo sapiens, UniProt P41968); experiment: Radioligand binding, human melanocortin MC3 membranes, FlashPlate, [125I]-NDP-αMSH; settings: compound at 10 μM; [125I]-NDP-αMSH, human MC3 membranes
T10 construct: purchased Perkin Elmer Biosignal
Method in brief: as §1

Human μ-opioid (MOP) = target: T11, Human μ-opioid (MOP) (Homo sapiens, UniProt P35372); experiment: Radioligand binding, human μ-opioid (MOP) membranes, FlashPlate, [3H]-Naloxone; settings: compound at 10 μM, [3H]-Naloxone, human MOP membranes
T11 construct: purchased Perkin Elmer Biosignal
Method in brief: as §1

T7 sequence (P41143 whole entry): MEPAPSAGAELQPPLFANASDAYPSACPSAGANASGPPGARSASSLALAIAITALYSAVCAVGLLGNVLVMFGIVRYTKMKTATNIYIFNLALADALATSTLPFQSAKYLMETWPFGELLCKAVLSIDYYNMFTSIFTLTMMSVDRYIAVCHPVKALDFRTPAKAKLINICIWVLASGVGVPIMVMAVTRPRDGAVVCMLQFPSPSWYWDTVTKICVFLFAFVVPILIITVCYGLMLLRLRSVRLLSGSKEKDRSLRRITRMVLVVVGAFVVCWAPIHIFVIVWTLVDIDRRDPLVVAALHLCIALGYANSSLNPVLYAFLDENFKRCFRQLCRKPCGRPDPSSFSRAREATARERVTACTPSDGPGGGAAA
T3 sequence (P32245 whole entry): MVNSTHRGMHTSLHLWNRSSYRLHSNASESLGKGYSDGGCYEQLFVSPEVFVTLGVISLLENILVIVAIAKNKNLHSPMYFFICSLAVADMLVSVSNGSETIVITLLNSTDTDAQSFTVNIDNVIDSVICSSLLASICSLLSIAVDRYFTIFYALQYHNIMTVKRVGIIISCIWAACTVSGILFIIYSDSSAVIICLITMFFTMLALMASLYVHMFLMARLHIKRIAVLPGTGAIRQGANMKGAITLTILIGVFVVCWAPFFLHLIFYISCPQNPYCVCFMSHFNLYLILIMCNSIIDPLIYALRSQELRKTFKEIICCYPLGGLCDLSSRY
T9 sequence (P41146 whole entry): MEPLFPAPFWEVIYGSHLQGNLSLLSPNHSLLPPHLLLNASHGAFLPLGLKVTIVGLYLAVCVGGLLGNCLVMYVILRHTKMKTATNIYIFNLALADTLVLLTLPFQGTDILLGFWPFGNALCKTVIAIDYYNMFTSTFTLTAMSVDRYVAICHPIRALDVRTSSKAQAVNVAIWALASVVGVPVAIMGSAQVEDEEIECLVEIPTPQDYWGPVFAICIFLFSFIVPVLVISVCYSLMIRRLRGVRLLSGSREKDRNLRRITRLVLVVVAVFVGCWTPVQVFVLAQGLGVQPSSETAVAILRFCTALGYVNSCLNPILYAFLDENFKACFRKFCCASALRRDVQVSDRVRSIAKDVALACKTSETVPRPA
T11 sequence (P35372 whole entry): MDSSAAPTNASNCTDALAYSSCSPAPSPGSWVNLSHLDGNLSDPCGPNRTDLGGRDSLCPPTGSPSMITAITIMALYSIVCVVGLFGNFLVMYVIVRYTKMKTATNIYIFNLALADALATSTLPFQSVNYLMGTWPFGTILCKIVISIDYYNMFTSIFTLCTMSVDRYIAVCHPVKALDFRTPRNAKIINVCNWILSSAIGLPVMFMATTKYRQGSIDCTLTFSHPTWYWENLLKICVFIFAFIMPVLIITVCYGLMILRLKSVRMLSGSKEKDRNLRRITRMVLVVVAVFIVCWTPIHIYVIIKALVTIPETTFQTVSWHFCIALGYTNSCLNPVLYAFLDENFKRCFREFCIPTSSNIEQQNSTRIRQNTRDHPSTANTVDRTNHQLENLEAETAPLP
T6 sequence (P25103 whole entry): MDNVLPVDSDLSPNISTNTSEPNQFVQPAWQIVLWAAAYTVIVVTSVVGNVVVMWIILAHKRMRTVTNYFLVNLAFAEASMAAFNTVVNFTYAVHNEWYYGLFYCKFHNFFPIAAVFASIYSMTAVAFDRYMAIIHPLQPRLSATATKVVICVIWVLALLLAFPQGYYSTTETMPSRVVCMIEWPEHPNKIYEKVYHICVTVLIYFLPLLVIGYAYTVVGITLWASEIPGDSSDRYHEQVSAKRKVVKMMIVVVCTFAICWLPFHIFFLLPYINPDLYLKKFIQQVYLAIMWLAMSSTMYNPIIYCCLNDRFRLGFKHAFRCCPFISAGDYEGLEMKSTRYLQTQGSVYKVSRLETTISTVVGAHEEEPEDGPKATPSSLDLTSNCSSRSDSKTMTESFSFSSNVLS
T10 sequence (P41968 whole entry): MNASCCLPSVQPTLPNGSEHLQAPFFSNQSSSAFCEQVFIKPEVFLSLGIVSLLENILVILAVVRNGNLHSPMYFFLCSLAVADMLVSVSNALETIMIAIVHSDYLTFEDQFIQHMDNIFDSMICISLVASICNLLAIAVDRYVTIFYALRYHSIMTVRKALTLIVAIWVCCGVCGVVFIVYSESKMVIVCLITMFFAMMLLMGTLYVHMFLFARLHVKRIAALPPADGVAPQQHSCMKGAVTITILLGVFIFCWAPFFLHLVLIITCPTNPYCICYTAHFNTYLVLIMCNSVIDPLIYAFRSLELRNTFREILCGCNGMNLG
T5 sequence (P41145 whole entry): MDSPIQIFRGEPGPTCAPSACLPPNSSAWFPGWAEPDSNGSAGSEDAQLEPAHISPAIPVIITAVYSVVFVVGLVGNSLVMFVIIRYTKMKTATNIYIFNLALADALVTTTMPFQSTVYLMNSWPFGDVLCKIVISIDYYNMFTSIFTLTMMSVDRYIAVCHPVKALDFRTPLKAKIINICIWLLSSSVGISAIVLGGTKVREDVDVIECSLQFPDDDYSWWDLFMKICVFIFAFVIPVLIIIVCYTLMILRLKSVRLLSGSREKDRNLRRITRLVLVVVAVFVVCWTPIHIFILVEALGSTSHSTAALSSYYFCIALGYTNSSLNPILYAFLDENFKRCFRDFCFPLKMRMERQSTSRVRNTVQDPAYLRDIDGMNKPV
T2 sequence (P33032 whole entry): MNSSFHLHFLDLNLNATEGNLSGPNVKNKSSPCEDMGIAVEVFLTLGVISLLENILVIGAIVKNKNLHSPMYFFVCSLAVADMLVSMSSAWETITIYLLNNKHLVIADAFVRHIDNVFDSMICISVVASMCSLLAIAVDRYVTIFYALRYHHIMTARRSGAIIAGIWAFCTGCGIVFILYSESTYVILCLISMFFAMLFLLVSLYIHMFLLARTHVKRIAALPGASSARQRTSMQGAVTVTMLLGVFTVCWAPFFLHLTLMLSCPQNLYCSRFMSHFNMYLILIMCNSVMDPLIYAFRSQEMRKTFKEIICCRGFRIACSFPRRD
T4 sequence (Q99705 whole entry): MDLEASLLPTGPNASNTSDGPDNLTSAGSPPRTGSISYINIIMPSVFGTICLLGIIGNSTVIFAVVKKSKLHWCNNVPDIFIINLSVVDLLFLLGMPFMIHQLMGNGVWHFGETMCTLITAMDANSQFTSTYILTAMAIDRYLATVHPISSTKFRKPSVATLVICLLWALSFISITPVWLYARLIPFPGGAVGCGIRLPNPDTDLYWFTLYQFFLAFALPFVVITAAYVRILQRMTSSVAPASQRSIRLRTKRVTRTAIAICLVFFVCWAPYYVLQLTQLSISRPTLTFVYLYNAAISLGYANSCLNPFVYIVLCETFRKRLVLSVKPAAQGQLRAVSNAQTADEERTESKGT

For N=C(N)NCCC(=O)NC1C(OCc2ccc(-c3ccccc3)cc2)OC(COCc2ccc(Cl)cc2)C(O)C1OCc1ccc(-c2ccccc2)cc1 (stereo not drawn) [compound 416], the “A9: inhibition of radioligand binding” value [1] was “− (“−” indicates less than 50% inhibition at 10 μM)”, the “A5: inhibition of radioligand binding” value (Human melanocortin (MC5)) was “+ (“+” indicates greater than 50% inhibition at 10 μM)” and the “A4: inhibition of radioligand binding” value (Human Melanocortin (MC4)) was “+ (“+” indicates greater than 50% inhibition at 10 μM)”. For the same compound, the “A6: inhibition of radioligand binding” value [2] was “+ (“+” indicates greater than 50% inhibition at 10 μM)”, the “A2: inhibition of radioligand binding” value (Human κ-Opioid (KOP)) was “− (“−” indicates less than 50% inhibition at 10 μM)” and the “A8: inhibition of radioligand binding” value (Human neurokinin (NK1)) was “+ (“+” indicates greater than 50% inhibition at 10 μM)”. The “A1: inhibition of radioligand binding” value (Human δ-opioid (DOP)) was “− (“−” indicates less than 50% inhibition at 10 μM)”, the “A11: inhibition of radioligand binding” value (Mouse urotensin (mUR2)) was “− (“−” indicates less than 50% inhibition at 10 μM)” and the “A10: inhibition of radioligand binding” value (Human opioid (ORL1)) was “+ (“+” indicates greater than 50% inhibition at 10 μM)”. The “A3: inhibition of radioligand binding” value (Human Melanocortin (MC3)) was “+ (“+” indicates greater than 50% inhibition at 10 μM)” and the “A7: inhibition of radioligand binding” value (Human μ-opioid (MOP)) was “− (“−” indicates less than 50% inhibition at 10 μM)”.

N=C(N)NCCC(=O)NC1C(OCc2ccc(Cl)cc2)OC(COCc2ccc(Cl)cc2)C(O)C1OCc1ccc2ccccc2c1 (stereo not drawn) [compound 431] was tested, and the “A9: inhibition of radioligand binding” value [1] was “− (“−” indicates less than 50% inhibition at 10 μM)”, the “A5: inhibition of radioligand binding” value (Human melanocortin (MC5)) was “+ (“+” indicates greater than 50% inhibition at 10 μM)” and the “A4: inhibition of radioligand binding” value (Human Melanocortin (MC4)) was “+ (“+” indicates greater than 50% inhibition at 10 μM)”. For the same compound, the “A6: inhibition of radioligand binding” value [2] was “+ (“+” indicates greater than 50% inhibition at 10 μM)”, the “A2: inhibition of radioligand binding” value (Human κ-Opioid (KOP)) was “− (“−” indicates less than 50% inhibition at 10 μM)” and the “A8: inhibition of radioligand binding” value (Human neurokinin (NK1)) was “+ (“+” indicates greater than 50% inhibition at 10 μM)”. For the same compound, the “A1: inhibition of radioligand binding” value (Human δ-opioid (DOP)) was “− (“−” indicates less than 50% inhibition at 10 μM)”, the “A11: inhibition of radioligand binding” value (Mouse urotensin (mUR2)) was “− (“−” indicates less than 50% inhibition at 10 μM)” and the “A10: inhibition of radioligand binding” value (Human opioid (ORL1)) was “+ (“+” indicates greater than 50% inhibition at 10 μM)”. The “A3: inhibition of radioligand binding” value (Human Melanocortin (MC3)) was “+ (“+” indicates greater than 50% inhibition at 10 μM)” and the “A7: inhibition of radioligand binding” value (Human μ-opioid (MOP)) was “− (“−” indicates less than 50% inhibition at 10 μM)”.

For NCCCC(=O)NC1C(OCc2ccc3ccccc3c2)OC(COCc2ccc(Cl)cc2)C(O)C1OCc1ccc(Cl)cc1 (single isomer, unassigned) [compound 459], the “A9: inhibition of radioligand binding” value [1] was “− (“−” indicates less than 50% inhibition at 10 μM)”, the “A5: inhibition of radioligand binding” value (Human melanocortin (MC5)) was “+ (“+” indicates greater than 50% inhibition at 10 μM)” and the “A4: inhibition of radioligand binding” value (Human Melanocortin (MC4)) was “+ (“+” indicates greater than 50% inhibition at 10 μM)”. For the same compound, the “A6: inhibition of radioligand binding” value ([2]; 10 µM) was “+ (“+” indicates greater than 50% inhibition at 10 μM)”, the “A2: inhibition of radioligand binding” value (Human κ-Opioid (KOP)) was “− (“−” indicates less than 50% inhibition at 10 μM)” and the “A8: inhibition of radioligand binding” value (Human neurokinin (NK1)) was “+ (“+” indicates greater than 50% inhibition at 10 μM)”. For the same compound, the “A1: inhibition of radioligand binding” value (Human δ-opioid (DOP)) was “− (“−” indicates less than 50% inhibition at 10 μM)”, the “A11: inhibition of radioligand binding” value (Mouse urotensin (mUR2)) was “− (“−” indicates less than 50% inhibition at 10 μM)” and the “A10: inhibition of radioligand binding” value (Human opioid (ORL1); 10 µM) was “+ (“+” indicates greater than 50% inhibition at 10 μM)”. For the same compound, the “A3: inhibition of radioligand binding” value (Human Melanocortin (MC3)) was “+ (“+” indicates greater than 50% inhibition at 10 μM)” and the “A7: inhibition of radioligand binding” value (Human μ-opioid (MOP); 10 µM) was “− (“−” indicates less than 50% inhibition at 10 μM)”.
